US20190382432A1 (Synbias Pharma AG, priority 2013, published 2019)
Counter-ions that a name gives are not always drawn. Marks after values point to notes of the source that are not given here.

Columns and labels:
Assay type in all cases: physicochemical
[1] = Hygroscopic capacity: water content by Karl-Fischer titration after exposure to temperature and relative humidity; details: 25 or 40 °C, 40-90% rh; data not shown
Experimental: Coulometric Karl-Fischer titration (KFT; for determining the water content) was performed with an external drying oven (Metrohm 707 KF; operated at 140° C. with N2 purge). The samples were precisely weighed on an analytical balance (10^−5 g).
The testing was performed as described in the ICH guidelines.

[2] = Particle size distribution by laser diffraction analysis (Mastersizer 2000); details: wet laser diffraction in acetone; listed as Sample 3, hydrochloride
Experimental: Laser diffraction analysis was performed in form of wet laser diffraction in acetone: 1750 rpm, 3×20 s cycle time, 60 s background time, without sonication, and 5 min stirring time using a Mastersizer 2000 Particle Size Analyzer (Malvern Instruments Ltd., Malvern, UK) according to the manufacturer's instructions.

[3] = Thermostability on storage at 25, 40 and 100 °C per ICH Q1A (R2), HPLC; details: 25, 40, 100 °C; data not shown
Experimental: HPLC and GC analyses were performed according to standard protocols.
The testing was performed as described in the ICH guidelines (cf. inter alia ICH Guideline Q1A (R2)).

[4] = Thermostability under stress conditions (storage at 100 °C for one month), HPLC
Experimental: Sample S was prepared according to the present invention, as described in Example 3 above. Sample M1 was prepared according to Example 1 of WO 2012/163508 A1, as described in Example 7 above. Finally, Sample M2 was prepared according to Example 2 of WO 2012/163508 A1, as described in Example 7 above.
The samples were exposed to a temperature of 100° C. for the time period (in weeks) indicated. The testing was performed as described in the ICH Guideline Q1A (R2) (cf. above). The amount of the degradation product (i.e. doxorubicinone) produced as well as those of various impurities (i.e., doxorubicin and four different impurities of yet unknown identity; all given in % (w/w); “n.d.”=not determined) was determined by HPCL analysis (“LT”=less than).

COc1cccc2c1C(=O)c1c(O)c3c(c(O)c1C2=O)C[C@@](O)(C(=O)CO)C[C@@H]3O[C@H]1C[C@H](N)[C@H](O)[C@H](C)O1 [S, epirubicin hydrochloride]
Hygroscopic capacity compared with the Example 1 monohydrate (TABLE 6-1), in words [1]: almost identical results | D(v/0.5), mean diameter based on the volume of the particles [2]: 25.25 μm | Thermostability compared with the Example 1 monohydrate (TABLE 5-1), in words [3]: almost identical results | Doxorubicin (NMT 1%) ([4]; 0 weeks): 0.29 % (w/w) | Doxorubicinone (Aglycone) (NMT 1%) ([4]; 0 weeks): < 0.05 % (w/w) | Total Impurities (NMT 2%) ([4]; 0 weeks): 0.30 % (w/w) | Doxorubicin (NMT 1%) ([4]; 1 week, hydrochloride): 0.28 % (w/w) | Doxorubicinone (Aglycone) (NMT 1%) ([4]; 1 week, hydrochloride): 0.39 % (w/w) | Total Impurities (NMT 2%) ([4]; 1 week, hydrochloride): 0.80 % (w/w) | Unknown impurity RRT 1.7 (NMT 0.15%) ([4]; 1 week, hydrochloride): 0.08 % (w/w) | Doxorubicin (NMT 1%) ([4]; 2 weeks): 0.32 % (w/w) | Doxorubicinone (Aglycone) (NMT 1%) ([4]; 2 weeks, hydrochloride): 0.40 % (w/w) | Total Impurities (NMT 2%) ([4]; 2 weeks, hydrochloride): 0.90 % (w/w) | Unknown impurity RRT 1.2 (NMT 0.15%) ([4]; 2 weeks, hydrochloride): 0.07 % (w/w) | Unknown impurity RRT 1.6 (NMT 0.15%) ([4]; 2 weeks, hydrochloride): 0.05 % (w/w) | Unknown impurity RRT 1.7 (NMT 0.15%) ([4]; 2 weeks, hydrochloride): 0.09 % (w/w) | Doxorubicin (NMT 1%) ([4]; 3 weeks, hydrochloride): 0.32 % (w/w) | Doxorubicinone (Aglycone) (NMT 1%) ([4]; 3 weeks, hydrochloride): 0.46 % (w/w) | Total Impurities (NMT 2%) ([4]; 3 weeks, hydrochloride): 1.10 % (w/w) | Unknown impurity RRT 1.2 (NMT 0.15%) ([4]; 3 weeks, hydrochloride): 0.08 % (w/w) | Unknown impurity RRT 1.6 (NMT 0.15%) ([4]; 3 weeks, hydrochloride): 0.12 % (w/w) | Unknown impurity RRT 1.7 (NMT 0.15%) ([4]; 3 weeks, hydrochloride): 0.13 % (w/w) | Doxorubicin (NMT 1%) ([4]; 4 weeks): 0.33 % (w/w) | Doxorubicinone (Aglycone) (NMT 1%) ([4]; 4 weeks, hydrochloride): 0.49 % (w/w) | Total Impurities (NMT 2%) ([4]; 4 weeks, hydrochloride): 1.3* % (w/w) | Total amount of unknown impurities ([4]; 4 weeks, hydrochloride): 0.48 % (w/w) | Unknown impurity RRT 1.1 (NMT 0.15%) ([4]; 4 weeks, hydrochloride): 0.06 % (w/w) | Unknown impurity RRT 1.2 (NMT 0.15%) ([4]; 4 weeks, hydrochloride): 0.11 % (w/w) | Unknown impurity RRT 1.6 (NMT 0.15%) ([4]; 4 weeks, hydrochloride): 0.15 % (w/w) | Unknown impurity RRT 1.7 (NMT 0.15%) ([4]; 4 weeks, hydrochloride): 0.15 % (w/w) | Degradation under stress conditions compared with M1 and M2, in words ([4]; one month): less pronounced degradation
